Data: the NIST ThermoML archive (doi:10.1021/je2006117)
Several values for one entry are separate records, joined by “and”; a condition that tells them apart may be missing. Equal entries are not always repeated.

Experiments:
[1] = mn = molality of the nth substance listed, in mol/kg; conditions: 298.15 K, 101 kPa, Liquid; for viscosity: Capillary tube (Ostwald / Ubbelohde) method; for mass density: Vibrating tube method
[2] = refractive index (Na D-line) (dimensionless); mn = molality of the nth substance listed, in mol/kg; conditions: 298.15 K, 101 kPa, Liquid, Standard Abbe refractometry
[3] = refractive index (Na D-line) (dimensionless); conditions: 298.15 K; 101.33 kPa; Liquid; Standard Abbe refractometry
[4] = 298.15 K, Liquid

CCC[n+]1ccn(C)c1.[Br-] [1-methyl-3-propylimidazolium bromide] + CN(C)C=O
Conditions | mass density, [1] [kg/m3] | refractive index, [2] | viscosity, [1] [mPa·s]
m1 = 0.0268 | 945.94 | 1.4289 | 0.88
m1 = 0.0444 | 947.2 | 1.4296 | 0.889
m1 = 0.0628 | 948.49 | 1.4302 | 0.897
m1 = 0.0851 | 950.04 | 1.4307 | 0.905
m1 = 0.103 | 951.26 | 1.4309 | 0.917
m1 = 0.1256 | 952.76 | 1.4312 | 0.923
m1 = 0.1396 | 953.7 | 1.4317 | 0.936
m1 = 0.1656 | 955.41 | 1.4321 | 0.956
m1 = 0.1826 | 956.49 | 1.4328 | 0.966
m1 = 0.2057 | 957.93 | 1.4336 | 0.975

CCCCCn1cc[n+](C)c1.[Br-] [1-pentyl-3-methylimidazolium bromide] + CN(C)C=O
Conditions | mass density, [1] [kg/m3] | refractive index, [2] | viscosity, [1] [mPa·s]
m1 = 0.0201 | 945.2 | 1.4291 | 0.877
m1 = 0.0409 | 946.55 | 1.4297 | 0.89
m1 = 0.0618 | 947.88 | 1.4299 | 0.899
m1 = 0.0853 | 949.36 | 1.4309 | 0.912
m1 = 0.1009 | 950.32 | 1.4312 | 0.925
m1 = 0.1186 | 951.39 | 1.4317 | 0.942
m1 = 0.1433 | 952.9 | 1.432 | 0.957
m1 = 0.161 | 953.93 | 1.4323 | 0.965
m1 = 0.1798 | 955.02 | 1.4329 | 0.982
m1 = 0.205 | 956.48 | 1.4333 | 0.991

C(=NCCN=Cc1ccccn1)c1ccccn1 [N,N'-bis(2-pyridinylmethylene)-1,2-ethanediamine] + CN(C)C=O
[1]
Conditions | mass density
m1 = 0.0401 | 945.31 kg/m3
m1 = 0.0484 | 945.37 kg/m3
m1 = 0.0728 | 946.33 kg/m3
m1 = 0.0941 | 946.67 kg/m3
m1 = 0.1205 | 947.34 kg/m3
m1 = 0.1508 | 948.27 kg/m3
m1 = 0.1553 | 949.12 kg/m3 and 949.25 kg/m3

CN(C)C=O [dimethylformamide]
Conditions | refractive index
[3] | 1.4285

[4]
Conditions | mass density | viscosity [mPa·s]
101 kPa, Vibrating tube method | 943.88 kg/m3 and 943.99 kg/m3 | –
101.33 kPa, Capillary tube (Ostwald / Ubbelohde) method | – | 0.8608

Conditions | mass density [kg/m3]
[4], 101.33 kPa | 943.88
